Experimental findings from US20020048572A1, “Treatment of hypertriglyceridemia and other conditions using LXR modulators” (priority 2000, published 2002) are described below.

The target of one data set is T1, LXRα (Homo sapiens, UniProt Q13133).
T1 sequence (Q13133 1-447): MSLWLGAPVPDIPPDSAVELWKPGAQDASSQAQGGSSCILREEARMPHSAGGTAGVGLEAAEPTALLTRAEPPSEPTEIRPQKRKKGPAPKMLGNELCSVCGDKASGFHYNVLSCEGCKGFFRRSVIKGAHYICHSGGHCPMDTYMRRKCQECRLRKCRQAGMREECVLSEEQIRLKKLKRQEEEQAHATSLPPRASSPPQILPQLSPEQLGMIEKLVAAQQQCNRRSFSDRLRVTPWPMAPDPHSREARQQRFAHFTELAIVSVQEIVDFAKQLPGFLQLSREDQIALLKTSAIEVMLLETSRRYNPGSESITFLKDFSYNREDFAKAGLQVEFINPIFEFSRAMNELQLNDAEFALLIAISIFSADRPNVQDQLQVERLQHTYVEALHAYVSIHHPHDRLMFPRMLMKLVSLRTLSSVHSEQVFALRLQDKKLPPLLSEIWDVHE
Particulars: fold relative to DMSO.

A further data set concerns mouse liver mRNA. As to the kind of experiment: Northern blot analysis of hepatic gene expression in treated mice. In kind it is in vivo. Here is the method:
FIG. 9. Northern blot analysis. Total RNA was isolated from the tissues indicated from mice (A,B,C) and hamsters (D). The numerical data shown with each figure represents the fold increase (+) or decrease (-) of expression relative to corresponding vehicle-treated controls. (E) HepG2 cells were incubated in culture media with or without cycloheximide (cyclohex). Total RNA extraction and purification for Northern blot analysis was accomplished using the TRI reagent (Molecular Research Center). […] Mouse gene expression was assessed by Northern blot analysis using random primed, ^32P-labeled, cDNA probes that were generated using the primers described in FIG. 11. Hybridization signals were quantified using a phosphoimager (Molecular Dynamics) and standardized against GAPDH controls. Mouse cDNA probes for the numerous genes analyzed were prepared using primers from mouse liver or intestinal cDNA as template. The SREBP-2 cDNA was a gift from J. D. Horton (University of Texas Southwestern Medical Center, Dallas); mouse and hamster CYP7[…]. W. Russell (University of Texas Southwestern Medical Center, Dallas). SCD-1 was a gift from J. Ntambi (University of Wisconsin, Madison), and apoD was kindly provided by […] (University of Quebec, Montreal).

In the next data set the test system is wild-type mice. Briefly: Plasma and hepatic lipid analysis in wild-type mice. It counts as in vivo, mouse. Particulars: 7 d. Here is the method:
FIG. 10. Agonist T0901317-mediated increases in hepatic and plasma triglyceride levels and lipogenic mRNA requires LXRs. Analysis of the lipid content of livers and plasma from vehicle- and T0901317-created wild-type and LXRα/β-/- mice (n=5 for each of the four groups shown, treatment for 7 d). Pooled plasma (50 μL from each of five mice per group) was fractionated and lipids analyzed as described. Shown are the concentrations for (A) FPLC triglyceride, (B) FPLC phospholipid, and (C) hepatic triglyceride. (D) Northern blot analysis of hepatic SREEP-I, SREBP-2, SCD-1, FAS, and ACC mRNA levels.
C57BL/6 mice (Charles River Laboratories) were between 6 and 10 wk old and weighed ˜20-30 g at the initiation of treatment. Golden Syrian Hamsters (Harlan Sprague-Dawley) were between 12 and 16 wk old (80-150 g). Animals were fed regular chow diets containing ˜4% fat and 0.02% cholesterol (PMI Pi-colab 5053 Chow). LXRα and β−/− mice were reared at the University of Texas Southwestern (UTSW) Medical Center at Dallas in accordance with the Institutional Animal Care and Research Advisory Committee at the UTSW Medical Center. Mice at UTSW were maintained on a 12 h light/12 h dark cycle and fed ad libitum a cereal-based mouse chow diet (No. 7001, Harlan Teklad).
Plasma was prepared from euthanized mice using standard centrifugation techniques and analyzed for plasma total cholesterol, HDL cholesterol, and triglyceride concentrations using a Hitachi 704 Clinical Analyzer. FPLC of plasma lipoproteins was accomplished using 200 μL aliquots of pooled plasma (from three to five animals) and fractionated on Superose 6 columns (Pharmacia). Cholesterol, triglyceride, and phospholipid concentrations in the fractions were determined enzymatically with reagents from Boehringer, Sigma, and Wako, respectively. Hepatic lipids were extracted and analyzed for triglyceride essentially as described (Bucolo, G. and David, H., Clin. Chem. 19:476-482 (1973); Yokode et al., Science 250:1273-1275 (1990)).

`O=S(=O)(c1ccccc1)N(CC(F)(F)F)c1ccc(C(O)(C(F)(F)F)C(F)(F)F)cc1` [T0901317, N-(2,2,2-trifluoro-ethyl)-N-[4-(2,2,2-trifluoro-1-hydroxy-1-trifluoromethyl-ethyl)-phenyl]-benzenesulfonamide]: at LXRα, the “induction of transcriptional activity of LXRα” value is on record as “eightfold”. Moreover, in the data set with mouse liver mRNA, the “apoAI, apoAII, apoD, apoE, MTP and NaTCP gene expression” value is recorded as “remained unaffected”; the “steady-state mRNA levels of CYP7A1, SCD-1, and SREBP-1” value is listed as “increased in a dose-dependent manner”; the “transcript level of 3-hydroxy-3-methylglutaryl coenzyme A synthase (HMG CoA S)” value is “consistently reduced”; the “transcript level of squalene synthase (SQS)” value is “consistently reduced”. Moreover, in the data set on mouse liver mRNA (data not shown), the “SR-BI, apoCIII and DCAT transcript levels” value is “did not appear to vary in level”. In the data set with mouse liver mRNA (fold increase vs vehicle), the “hepatic ACC gene activity (Northern blot)” value is given as “twofold”, the “hepatic FAS gene activity (Northern blot)” value is “threefold” and the “hepatic SCD-1 gene activity (Northern blot)” value is reported as “up to ninefold”. Also, the “plasma VLDL-triglyceride (FPLC)” value with wild-type mice (wild type mice, fold increase) was “threefold”. In the data set with wild-type mice (wild-type mice), the total plasma triglycerides worked out at 225.7 ± 7 mg/dL. Further, the hepatic triglyceride entry in the data set with wild-type mice (wild-type mice, fold vs vehicle-treated controls) was “fivefold”.
